Measured values taken from article PMC11200585, “Prospects for Prostate Cancer Chemotherapy: Cytotoxic Evaluation and Mechanistic Insights of Quinolinequinones with ADME/PK Profile” (Biomedicines, 2024).

How the values were obtained:
Assay type in all cases: cell-based, human
[1] = system: MOLT-4; assay: NCI-60 one-dose screen (leukemia); conditions: 10 µM single dose, 48 h
Description: (§1) The obtained quinolinequinones were submitted to NCI, Bethesda, USA, and, as per standard protocol of NCI, all compounds were evaluated for their antiproliferative activity at single-dose assay (10 µM concentration in DMSO) on a panel of 60 cancer cell lines derived from leukemia, non-small-cell lung, colon, CNS, melanoma, ovarian, renal, prostate, and breast, as per protocol. Tested compounds were added to the microtiter culture plates followed by incubation for 48 h at 37 °C. Sulforhodamine B (SRB), a protein-binding dye, is used for endpoint determination. The percent of the growth of the treated cells was determined in comparison to the untreated control cells and the results of each tested compound were reported. Data from one-dose experiments pertain to the percentage growth at 10 μM [16, 17, 18].

[2] = system: MDA-MB-468; assay: NCI-60 five-dose assay (breast cancer); conditions: 48 h, SRB
[3] = system: UACC-62; assay: NCI-60 five-dose assay (melanoma); conditions: 48 h, SRB
[4] = system: PC-3; assay: NCI-60 five-dose assay (prostate cancer); conditions: 48 h, SRB
[5] = system: LOX IMVI; assay: NCI-60 five-dose assay (melanoma); conditions: 48 h, SRB
[6] = system: MALME-3M; assay: NCI-60 five-dose assay (melanoma); conditions: 48 h, SRB
[7] = system: NCI-H460; assay: NCI-60 five-dose assay (non-small cell lung cancer); conditions: 48 h, SRB
[8] = system: HOP-92; assay: as above; conditions: 48 h, SRB
[9] = system: 786-0; assay: NCI-60 five-dose assay (renal cancer); conditions: 48 h, SRB
[10] = system: IGROV1; assay: NCI-60 five-dose assay (ovarian cancer); conditions: SRB
[11] = system: OVCAR-3; assay: NCI-60 five-dose assay (ovarian cancer); conditions: 48 h, SRB
[12] = system: SF-539; assay: NCI-60 five-dose assay (CNS cancer); conditions: 48 h, SRB
[13] = system: DU-145; assay: NCI-60 five-dose assay (prostate cancer); conditions: 48 h, SRB
[14] = system: ACHN; assay: NCI-60 five-dose assay (renal cancer); conditions: 48 h, SRB
[15] = system: OVCAR-8; assay: NCI-60 five-dose assay (ovarian cancer); conditions: 48 h, SRB
[16] = system: PC-3; assay: NCI-60 one-dose screen (prostate cancer); conditions: 10 µM single dose
Description: as §1

[17] = system: DU-145; assay: NCI-60 one-dose screen (prostate cancer); conditions: 10 µM single dose, 48 h
Description: as §1

[18] = system: IGROV1; assay: NCI-60 one-dose screen (ovarian cancer); conditions: 10 µM single dose, 48 h
Description: as §1

[19] = system: OVCAR-8; assay: NCI-60 one-dose screen (ovarian cancer); conditions: 10 µM single dose
Description: as §1

[20] = system: OVCAR-4; assay: NCI-60 one-dose screen (ovarian cancer); conditions: 10 µM single dose, 48 h
Description: as §1

[21] = system: NCI/ADR-RES; assay: NCI-60 one-dose screen (ovarian cancer); conditions: 10 µM single dose
Description: as §1

[22] = system: OVCAR-5; assay: NCI-60 one-dose screen (ovarian cancer); conditions: 10 µM single dose, 48 h
Description: as §1

[23] = system: SK-OV-3; assay: NCI-60 one-dose screen (ovarian cancer); conditions: 10 µM single dose, 48 h
Description: as §1

[24] = system: NCI/ADR-RES; assay: NCI-60 five-dose assay (ovarian cancer); conditions: 48 h, SRB
[25] = system: U251; assay: NCI-60 one-dose screen (CNS cancer); conditions: 10 µM single dose, 48 h
Description: as §1

[26] = system: SF-539; assay: NCI-60 one-dose screen (CNS cancer); conditions: 10 µM single dose
Description: as §1

[27] = system: SNB-75; assay: NCI-60 one-dose screen (CNS cancer); conditions: 10 µM single dose, 48 h
Description: as §1

[28] = system: SF-295; assay: NCI-60 one-dose screen (CNS cancer); conditions: 10 µM single dose, 48 h
Description: as §1

[29] = system: SF-268; assay: NCI-60 one-dose screen (CNS cancer); conditions: 10 µM single dose, 48 h
Description: as §1

[30] = system: SNB-19; assay: NCI-60 one-dose screen (CNS cancer); conditions: 10 µM single dose, 48 h
Description: as §1

[31] = system: HCT-116; assay: NCI-60 five-dose assay (colon cancer); conditions: 48 h, SRB
[32] = system: TK-10; assay: NCI-60 one-dose screen (renal cancer); conditions: 10 µM single dose, 48 h
Description: as §1

[33] = system: SN12C; assay: NCI-60 one-dose screen (renal cancer); conditions: 10 µM single dose, 48 h
Description: as §1

[34] = system: A498; assay: NCI-60 one-dose screen (renal cancer); conditions: 10 µM single dose, 48 h
Description: as §1

[35] = system: ACHN; assay: NCI-60 one-dose screen (renal cancer); conditions: 10 µM single dose, 48 h
Description: as §1

[36] = system: UO-31; assay: NCI-60 one-dose screen (renal cancer); conditions: 10 µM single dose, 48 h
Description: as §1

[37] = system: 786-0; assay: NCI-60 one-dose screen (renal cancer); conditions: 10 µM single dose, 48 h
Description: as §1

[38] = system: HS 578T; assay: NCI-60 five-dose assay (breast cancer); conditions: 48 h, SRB
[39] = Homo sapiens, read-out: LC50 (the source's name)

COc1ccccc1NC1=C(Cl)C(=O)c2nc(C)ccc2C1=O [AQQ1]
GP (growth percentage) [1]: −39.00% | TGI [2]: 3.06 µM | GI50 ([2]; Homo sapiens): 1.52 µM | LC50 ([2]; Homo sapiens): 6.16 µM | TGI [3]: 3.37 µM | GI50 ([3]; Homo sapiens): 1.82 µM | LC50 (concentration killing 50% of cells) ([3]; Homo sapiens): 6.25 µM | TGI [4]: 2.58 µM | GI50 ([4]; Homo sapiens): 1.21 µM | CC50 [4, 39]: 5.49 µM | TGI [5]: 2.36 µM | GI50 ([5]; Homo sapiens): 0.952 µM | LC50 (concentration killing 50% of cells) ([5]; Homo sapiens): 5.7 µM | TGI [6]: 3.19 µM | GI50 ([6]; Homo sapiens): 1.71 µM | LC50 ([6]; Homo sapiens): 5.95 µM | TGI [7]: 12 µM | GI50 ([7]; Homo sapiens): 3.22 µM | CC50 [7, 39]: 52.7 µM | TGI [8]: 3.30 µM | GI50 ([8]; Homo sapiens): 1.85 µM | LC50 (50% lethal concentration) ([8]; Homo sapiens): 5.91 µM | TGI [9]: 3.61 µM | GI50 ([9]; Homo sapiens): 1.91 µM | LC50 ([9]; Homo sapiens): 6.82 µM | TGI ([10]; 48 h): 2.92 µM | GI50 ([10]; Homo sapiens, IGROV-1, 48 h): 1.46 µM | LC50 ([10]; Homo sapiens, IGROV-1, 48 h): 5.86 µM | TGI [11]: 2.40 µM | GI50 ([11]; Homo sapiens): 1.12 µM | CC50 [11, 39]: 5.15 µM | TGI [12]: 3.13 µM | GI50 ([12]; Homo sapiens): 1.68 µM | LC50 ([12]; Homo sapiens): 5.81 µM | TGI [13]: 3.11 µM | GI50 ([13]; Homo sapiens): 1.72 µM | CC50 [13, 39]: 5.62 µM | TGI [14]: 2.80 µM | GI50 ([14]; Homo sapiens): 1.47 µM | LC50 ([14]; Homo sapiens): 5.34 µM | TGI [15]: 3.25 µM | GI50 ([15]; Homo sapiens): 1.61 µM | CC50 [15, 39]: 6.59 µM | GP (growth percentage) ([16]; 48 h): 27.39% | inhibition at 10 µM ([16]; Homo sapiens): 72.6% | GP (growth percentage) [17]: −57.26% | GP (growth percentage) [18]: −83.51% | GP (growth percentage) ([19]; 48 h): 9.87% | inhibition at 10 µM ([19]; Homo sapiens): 90.1% | GP (growth percentage) [20]: −98.22% | GP (growth percentage) ([21]; 48 h): 7.08% | inhibition at 10 µM ([21]; Homo sapiens): 92.9% | GP (growth percentage) [22]: 78.91% | GP (growth percentage) [23]: 88.34% | TGI [24]: 5.16 µM | GI50 ([24]; Homo sapiens): 2.03 µM | CC50 [24, 39]: 34.6 µM | GP (growth percentage) [25]: 62.79% | GP (growth percentage) ([26]; 48 h): 1.78% | inhibition at 10 µM ([26]; Homo sapiens): 98.2% | GP (growth percentage) [27]: 105.38% | GP (growth percentage) [28]: 96.61% | GP (growth percentage) [29]: 47.42% | GP (growth percentage) [30]: 38.92% | TGI [31]: 4.16 µM | GI50 ([31]; Homo sapiens): 1.53 µM | LC50 ([31]; Homo sapiens): 44.3 µM | GP (growth percentage) [32]: 147.78% | GP (growth percentage) [33]: −49.46% | GP (growth percentage) [34]: 71.81% | GP (growth percentage) [35]: −99.93% | GP (growth percentage) [36]: −65.68% | GP (growth percentage) [37]: 9.17% | TGI [38]: 5.64 µM | GI50 ([38]; Homo sapiens): 2.27 µM | CC50 [38, 39]: > 100 µM
